{
  "source": "paper PMC3915720",
  "about": "(Biochemistry, 2013)",
  "test_in_all_cases": "X-ray crystal structure, […] Å",
  "assay_type_in_all_cases": "binding",
  "key": {"WlaRD (C8J_1081) [1]": {"molecular_target": "T1, WlaRD (C8J_1081) (Campylobacter jejuni, UniProt Q9ALS6)"}, "WlaRD (C8J_1081) [2]": {"molecular_target": "T1, WlaRD (C8J_1081)", "settings": "complex with N^5-formyl-THF"}, "WlaRD (C8J_1081) [3]": {"molecular_target": "T1, WlaRD (C8J_1081)", "remark": "listed apart in the source"}},
  "data": [
    {"compound": "Nc1nc2c(c(=O)[nH]1)N[C@@H](CNc1ccc(C(=O)N[C@@H](CCC(=O)O)C(=O)O)cc1)CN2", "note": "[THF]", "values": [
      {"measurement": "X-ray crystal structure, 1.9 Å (soak, turnover in crystal)", "setting": "WlaRD (C8J_1081) [1]; complex with dTDP-Qui3N (subunit A) or dTDP-Qui3NFo (subunit B)", "result": "In subunit A, THF and dTDP-Qui3N were observed"}
    ]},
    {"compound": "Cc1cn([C@H]2C[C@H](O)[C@@H](COP(=O)(O)OP(=O)(O)O[C@H]3O[C@H](C)[C@H](O)[C@H](NC=O)[C@H]3O)O2)c(=O)[nH]c1=O", "note": "[dTDP-Fuc3NFo]", "values": [
      {"measurement": "X-ray crystal structure, 1.45 Å (cocrystal)", "setting": "WlaRD (C8J_1081) [2]", "result": "to form such a complex in the presence of dTDP-Fuc3NFo as shown"}
    ]},
    {"compound": "Nc1nc2c(c(=O)[nH]1)N(C=O)[C@@H](CNc1ccc(C(=O)N[C@@H](CCC(=O)O)C(=O)O)cc1)CN2", "note": "[N^5-formyl-THF]", "values": [
      {"measurement": "X-ray crystal structure, 1.4 Å (cocrystal)", "setting": "WlaRD (C8J_1081) [3]; complex with dTDP, not catalytically competent cofactor analog", "result": "that of the enzyme complexed with N^5-formyl-THF and dTDP"}
    ]},
    {"compound": "Cc1cn([C@H]2C[C@H](O)[C@@H](COP(=O)(O)OP(=O)(O)O)O2)c(=O)[nH]c1=O", "note": "[dTDP]", "values": [
      {"measurement": "X-ray crystal structure, 1.4 Å (cocrystal)", "setting": "WlaRD (C8J_1081) [3]; complex with N^5-formyl-THF, also with N^10-formyl-THF", "result": "that of the enzyme complexed with N^5-formyl-THF and dTDP"}
    ]},
    {"compound": "Cc1cn([C@H]2C[C@H](O)[C@@H](COP(=O)(O)OP(=O)(O)O[C@H]3O[C@H](C)[C@@H](O)[C@H](NC=O)[C@H]3O)O2)c(=O)[nH]c1=O", "note": "[dTDP-Qui3NFo]", "values": [
      {"measurement": "X-ray crystal structure, 1.9 Å (soak, turnover in crystal)", "setting": "WlaRD (C8J_1081) [1]; complex with THF, subunit B", "result": "In subunit B, however, the products THF and dTDP-Qui3NFo were present"}
    ]}
  ]
}
